According to patent publication US20060079497A1, “Lavendamycin analogues and methods of synthesizing and using lavendamycin analogues” (Ball State University, priority 2004, published 2006):
Where “and” joins values, the source holds several entries; their conditions need not be identical. Identical values can stand only once. Like-named read-outs stand apart in the source and are kept apart here.

Tests used:
HIV-RT [1] = target: T1, HIV-RT (Human immunodeficiency virus type 1 group M subtype B, UniProt P04585); assay: Checkerboard combination of lavendamycin analogs with AZT-triphosphate in HIV-RT enzyme assay (Chou and Talalay); type: biochemical
T1 construct: 1 unit/mL of HIV-RT (Worthington Biochemical Corp., Freehold, N.J.); purchased Worthington Biochemical Corp., Freehold, N.J
Protocol: The results were analyzed by the method of Chou and Talalay based on the median-effect principle and represented by combination indices (CI) determined for each of the two drug combinations (e.g., see: Chou, T. C.; Talalay, P. “Quantitative Analysis of Dose-Effect Relationships: The Combined Effects of Multiple Drugs or Enzyme Inhibitors,” Adv. Enzyme Regul., 1984, 22, 27-65; and Chou, J.; Chou, T. C. “Dose-Effect Analysis with Microcomputers: Quantitation of ED50, LD50, Synergism, Antagonism, Low-Dose Risk, Receptor-Ligand Binding and Enzyme Kinetics,” In: A computer Software for IBM-PC and Manual, Cambridge, UK, Elsevier-Biosoft, 1987). This method involves the plotting of dose-effect curves for each agent and for each of the different combinations of the agents. The slope of the median-effect plot, which signifies the shape of the dose-effect curve, and the x intercept of the plot, which signifies the potency of each compound alone and each combination, were then used for a computerized calculation of a combination index.
(§1) The assay procedure described below is adapted from Okada et al. (Okada, H.; Mukai, H.; Inouye, Y; Nakamura, S. “Biological Properties of Streptonigrin Derivatives II. Inhibition of Reverse Transcriptase Activity,” J. Antibiot., 1986, 39, 306-308). The lavendamycin analogs were initially dissolved in DMSO at a concentration of 1 mg/mL. Occasionally, mild sonication and heat were used to dissolve the less soluble compounds. The dissolved analogs were then serially diluted in distilled water to achieve concentrations in the final reaction mixture ranging from 0.5-15 μM. In addition to the lavendamycin analogs, the final reaction mixture contained 100 mM Tris-HCl (pH 8.0), 5 mM MgCl2, 5 mM dithiothreitol, 60 mM NaCl, 0.2 mM [^3H] thymidine triphosphate(5 μCi well), 4 μg/mL poly (rA)-oligo(dT)12-18 (Amersham Pharmacia Biotech, Piscataway, N.J.) and 1 unit/mL of HIV-RT (Worthington Biochemical Corp., Freehold, N.J.) in a total volume of 300 μL. For each assay, the reaction mixture containing 8× buffer, double distilled H2O, ^3HTTP, template-primer and HIV-RT was pre-mixed in a 15-mL sterile tube in quantities required for the particular experiment. After adding the enzyme, the reaction mixture was mixed and kept on ice. The inhibitors, either AZT(Moravek Biochemicals, Brea, Calif.), analogs or both were added to appropriate wells in a 24 well microtiter plate and ddH2O was added to each well to bring the volume of all test wells to 100 μL. Two hundred μL of the chilled reaction mixture was then added to each of the test wells, mixed, and incubated for 1 hr at 37° C. Several control wells with no inhibitors were included on each test plate. After stopping the reactions with 25 μL 0.1 M EDTA, triplicate samples of 15 μL from each test well were spotted on DE81 ion exchange filter paper squares (Whatman Paper, Maidstone, England). After drying, each filter was washed for 10 minutes three times with 5% TCA-NHPO4, three times with 0.6M NaCl-[…] Na Citrate, one time with ddH2O and one time with 95% ethanol. After drying the individual filter papers were added to 5 mL Scintiverse E (Fisher Scientific, Chicago, Ill.) scintillation fluid and the amount of 3H-TTP uptake measured as counts per minute on a Beckman liquid scintillation counter. […] The results were then analyzed using Calcusyn, a windows software program for dose effect analysis designed by T. -C. Chou and M. P. Hayball and published by Biosoft® (UK).

tumor = assay: Antitumor activity (applicant's earlier studies)
HIV-RT [2] = target: T1, HIV-RT; assay: Two drug combination of AZT-TP and analogues at constant molar ratios in HIV-RT assay (CI and dose reduction index); type: biochemical
From the text: In order to derive the dose reduction index of several of these compounds the method of Chou and Talalay was again employed using the classic isobologram technique. This method also involves the plotting of dose-effect curves for each agent as well as for multiply diluted fixed-ratio combinations of the agents.
The dose reduction index is a measure of how much the dose of each drug in a synergistic combination may be reduced at a given effect level compared with the doses of each drug alone.
as §1

[3] = Water solubility in HEPES buffer solution; type: physicochemical
[4] = analogue 0.25 μM + AZT 0.007 μM, Trial 1
[5] = analogue 0.25 μM + AZT 0.007 μM, Trial 2
[6] = analogue 0.25 μM + AZT 0.01 μM, Trial 1
[7] = analogue 0.25 μM + AZT 0.01 μM, Trial 2
[8] = analogue 0.25 μM + AZT 0.02 μM, Trial 1
[9] = analogue 0.25 μM + AZT 0.02 μM, Trial 2
[10] = analogue 0.5 μM + AZT 0.007 μM, Trial 1
[11] = analogue 0.5 μM + AZT 0.007 μM, Trial 2
[12] = analogue 0.5 μM + AZT 0.01 μM, Trial 1
[13] = analogue 0.5 μM + AZT 0.01 μM, Trial 2
[14] = analogue 0.5 μM + AZT 0.02 μM, Trial 1
[15] = analogue 0.5 μM + AZT 0.02 μM, Trial 2
[16] = analogue 0.75 μM + AZT 0.01 μM, Trial 1
[17] = analogue 0.75 μM + AZT 0.01 μM, Trial 2
[18] = analogue 0.75 μM + AZT 0.02 μM, Trial 1
[19] = analogue 0.75 μM + AZT 0.02 μM, Trial 2
[20] = analogue 1.5 μM + AZT 0.007 μM, Trial 1
[21] = analogue 1.5 μM + AZT 0.007 μM, Trial 2
[22] = analogue 1.5 μM + AZT 0.01 μM, Trial 1
[23] = analogue 1.5 μM + AZT 0.01 μM, Trial 2
[24] = analogue 1.5 μM + AZT 0.02 μM, Trial 1
[25] = analogue 1.5 μM + AZT 0.02 μM, Trial 2

SMILES | Combination index (HIV-RT [1]; [4]) | Combination index (HIV-RT [1]; [5]) | Combination index (HIV-RT [1]; [6]) | Combination index (HIV-RT [1]; [7]) | Combination index (HIV-RT [1]; [8]) | Combination index (HIV-RT [1]; [9]) | Combination index (HIV-RT [1]; [10]) | Combination index (HIV-RT [1]; [11]) | Combination index (HIV-RT [1]; [12]) | Combination index (HIV-RT [1]; [13]) | Combination index (HIV-RT [1]; [14]) | Combination index (HIV-RT [1]; [15]) | Combination index (HIV-RT [1]; [16]) | Combination index (HIV-RT [1]; [17]) | Combination index (HIV-RT [1]; [18]) | Combination index (HIV-RT [1]; [19]) | Combination index (HIV-RT [1]; [20]) | Combination index (HIV-RT [1]; [21]) | Combination index (HIV-RT [1]; [22]) | Combination index (HIV-RT [1]; [23]) | also measured
COC(=O)c1nc(-c2ccc3c(n2)C(=O)C(NC(C)=O)=CC3=O)c2[nH]c3ccccc3c2c1C [Compound 11, 7-acetyllavendamycin methyl ester] | 0.57 | 0.48 | 0.94 | 0.89 | 0.90 | 0.68 | 0.81 | 0.71 | 0.84 | 0.76 | 0.72 | 0.84 | 1.20 | 1.08 | 0.94 | 0.84 | 1.40 | 1.23 | 1.40 | 1.12 | Combination index (HIV-RT [1]): 1.00 and 1.30; Combination index (HIV-RT [1]; [24]): 1.17; Combination index (HIV-RT [1]; [25]): 1.08; antitumor activity (tumor): highly active antitumor agents
CCCCOC(=O)c1cc2c([nH]c3ccccc32)c(-c2ccc3c(n2)C(=O)C(NC(=O)CCC)=CC3=O)n1 [Compound 12, 7-N-n-Butyryidemethyllavendamycin n-Butyl Ester] | 0.82 | 0.83 | 0.58 | 0.58 | 0.59 | 0.50 | 0.88 | 0.71 | 0.76 | 0.76 | 0.85 | 0.93 | 0.86 | 0.99 | 1.00 | 0.92 | 1.30 | 1.20 | 0.81 | 0.91 | Combination index (HIV-RT [1]): 1.30 and 1.60; Combination index (HIV-RT [1]; [24]): 1.10; Combination index (HIV-RT [1]; [25]): 0.96; dose reduction in combination with AZT-TP (HIV-RT [2]): considerable dose reduction; CI at HIV-RT Inhibition of 50% (HIV-RT [2]; molar ratio AZT:analogue 1:600): 0.45 ± 0.06; CI at HIV-RT Inhibition of 70% (HIV-RT [2]; molar ratio AZT:analogue 1:600): 0.32 ± 0.08; Dose Reduction Index (50%) AZT-TP (HIV-RT [2]; molar ratio AZT:analogue 1:600): 3.0; Dose Reduction Index (50%) analogue (HIV-RT [2]; molar ratio AZT:analogue 1:600): 8.2; CI at HIV-RT Inhibition of 50% (HIV-RT [2]; molar ratio AZT:analogue 1:857): 0.39 ± 0.06; CI at HIV-RT Inhibition of 70% (HIV-RT [2]; molar ratio AZT:analogue 1:857): 0.32 ± 0.09; Dose Reduction Index (50%) AZT-TP (HIV-RT [2]; molar ratio AZT:analogue 1:857): 3.9; Dose Reduction Index (50%) analogue (HIV-RT [2]; molar ratio AZT:analogue 1:857): 7.3
CC(=O)NC1=CC(=O)c2ccc(-c3nc(C(N)=O)cc4c3[nH]c3ccccc34)nc2C1=O [Compound 16, 7-N-Acetyldemethyllavendamycin Amide] | 0.82 | 0.80 | 0.85 | 1.18 | 0.67 | 0.75 | 0.54 | 0.65 | 0.87 | 0.70 | 0.58 | 0.60 | 1.0 | 1.20 | 1.10 | 1.10 | 0.66 | 0.67 | 1.0 | 1.0 | Combination index (HIV-RT [1]; analogue 0.75 μM + AZT 0.007 μM, Trial 1): 1.50; Combination index (HIV-RT [1]; analogue 0.75 μM + AZT 0.007 μM, Trial 2): 1.61; Combination index (HIV-RT [1]; [24]): 1.00; Combination index (HIV-RT [1]; [25]): 1.00; antitumor activity (tumor): highly active antitumor agents
CC(=O)NC1=CC(=O)c2ccc(-c3nc(C(=O)O)cc4c3[nH]c3ccccc34)nc2C1=O [Compound 18, 7-N-Acetyldemethyllavendamycin] | 0.39 | 0.37 | 0.44 | 0.45 | 0.59 | 0.60 | 0.40 | 0.42 | 0.51 | 0.50 | 0.97 | 0.98 | 0.59 | 0.57 | 0.95 | 0.97 | 1.00 | 0.94 | 0.90 | 0.82 | Combination index (HIV-RT [1]): 0.66; Combination index (HIV-RT [1]; [24]): 2.00; Combination index (HIV-RT [1]; [25]): 2.20; combined effect with AZT-TP (HIV-RT [1]; analogue 1.5 μM together with AZT-TP 0.02 μM): antagonism; dose reduction in combination with AZT-TP (HIV-RT [2]): considerable dose reduction; CI at HIV-RT Inhibition of 70% (HIV-RT [2]; molar ratio AZT:analogue 1:600): 1.35 ± 0.64; Dose Reduction Index (50%) AZT-TP (HIV-RT [2]; molar ratio AZT:analogue 1:600): 1.5; Dose Reduction Index (50%) analogue (HIV-RT [2]; molar ratio AZT:analogue 1:600): 2.6; CI at HIV-RT Inhibition of 70% (HIV-RT [2]; molar ratio AZT:analogue 1:857): 1.7 ± 1.49; Dose Reduction Index (50%) AZT-TP (HIV-RT [2]; molar ratio AZT:analogue 1:857): 1.7; Dose Reduction Index (50%) analogue (HIV-RT [2]; molar ratio AZT:analogue 1:857): 2.0; Water solubility [3]: 0.05 mg/1 L
CCCCCCCCOC(=O)c1cc2c([nH]c3ccccc32)c(-c2ccc3c(n2)C(=O)C(N)=CC3=O)n1 [Compound 20, Demethyllavendamycin n-Octyl Ester] | 0.65 | 0.61 | 0.77 | 0.77 | 0.97 | 1.00 | 0.62 | 0.61 | 0.60 | 0.61 | 0.86 | 0.88 | 0.64 | 0.63 | 0.61 | 0.64 | 0.83 | 0.83 | 0.70 | 0.69 | Combination index (HIV-RT [1]): 0.68 and 0.66; Combination index (HIV-RT [1]; [24]): 0.64; Combination index (HIV-RT [1]; [25]): 0.63; dose reduction in combination with AZT-TP (HIV-RT [2]): considerable dose reduction; CI at HIV-RT Inhibition of 50% (HIV-RT [2]; molar ratio AZT:analogue 1:214): 0.46 ± 0.11; CI at HIV-RT Inhibition of 70% (HIV-RT [2]; molar ratio AZT:analogue 1:214): 0.56 ± 0.22; Dose Reduction Index (50%) AZT-TP (HIV-RT [2]; molar ratio AZT:analogue 1:214): 4.08; Dose Reduction Index (50%) analogue (HIV-RT [2]; molar ratio AZT:analogue 1:214): 4.63; CI at HIV-RT Inhibition of 50% (HIV-RT [2]; molar ratio AZT:analogue 1:600): 0.49 ± 0.17; CI at HIV-RT Inhibition of 70% (HIV-RT [2]; molar ratio AZT:analogue 1:600): 0.40 ± .09; Dose Reduction Index (50%) AZT-TP (HIV-RT [2]; molar ratio AZT:analogue 1:600): 2.4; Dose Reduction Index (50%) analogue (HIV-RT [2]; molar ratio AZT:analogue 1:600): 13.7
